Laboratory results from the NIST ThermoML archive (doi:10.1021/je0601356).
Several values for one entry are separate records, joined by “and”; a condition that tells them apart may be missing. Identical values can stand only once. Numbers after ± are expanded uncertainties.

Conditions: Liquid, Vibrating wire viscometry

CC(F)(F)F [1,1,1-trifluoroethane]
Conditions | viscosity
254.35 K, 1340 kPa | 0.2054 ± 0.006 mPa·s
254.35 K, 1350 kPa | 0.2063 ± 0.006 mPa·s and 0.2059 ± 0.006 mPa·s and 0.2062 ± 0.006 mPa·s
254.35 K, 1360 kPa | 0.2057 ± 0.006 mPa·s and 0.2065 ± 0.006 mPa·s
254.35 K, 1410 kPa | 0.206 ± 0.006 mPa·s
254.35 K, 1450 kPa | 0.2063 ± 0.006 mPa·s
254.35 K, 1960 kPa | 0.208 ± 0.006 mPa·s and 0.2082 ± 0.006 mPa·s
254.35 K, 1970 kPa | 0.2078 ± 0.006 mPa·s
254.35 K, 2010 kPa | 0.2081 ± 0.006 mPa·s and 0.208 ± 0.006 mPa·s
254.35 K, 2040 kPa | 0.2083 ± 0.006 mPa·s
254.35 K, 2070 kPa | 0.2088 ± 0.006 mPa·s
254.35 K, 3110 kPa | 0.2114 ± 0.0061 mPa·s
254.35 K, 3160 kPa | 0.2116 ± 0.0061 mPa·s
254.35 K, 3170 kPa | 0.2115 ± 0.0061 mPa·s
254.35 K, 3210 kPa | 0.2122 ± 0.0061 mPa·s
254.35 K, 3280 kPa | 0.212 ± 0.0061 mPa·s
254.35 K, 3320 kPa | 0.2119 ± 0.0061 mPa·s
254.35 K, 4170 kPa | 0.2145 ± 0.0061 mPa·s
254.35 K, 4190 kPa | 0.2147 ± 0.0061 mPa·s
254.35 K, 4210 kPa | 0.2147 ± 0.0061 mPa·s
254.35 K, 4940 kPa | 0.2173 ± 0.0061 mPa·s
254.35 K, 4970 kPa | 0.2167 ± 0.0062 mPa·s
254.35 K, 5000 kPa | 0.2176 ± 0.0062 mPa·s
254.35 K, 5020 kPa | 0.2172 ± 0.0061 mPa·s
254.35 K, 5050 kPa | 0.2171 ± 0.0061 mPa·s
254.35 K, 5100 kPa | 0.2176 ± 0.0062 mPa·s
263.02 K, 1300 kPa | 0.1828 ± 0.0056 mPa·s
263.02 K, 1320 kPa | 0.1828 ± 0.0056 mPa·s and 0.1829 ± 0.0056 mPa·s
263.02 K, 1330 kPa | 0.1827 ± 0.0056 mPa·s and 0.1826 ± 0.0056 mPa·s
263.02 K, 1970 kPa | 0.1855 ± 0.0056 mPa·s
263.02 K, 1980 kPa | 0.1857 ± 0.0056 mPa·s
263.02 K, 1990 kPa | 0.1855 ± 0.0056 mPa·s
263.02 K, 2010 kPa | 0.1851 ± 0.0056 mPa·s
263.02 K, 2020 kPa | 0.1857 ± 0.0056 mPa·s and 0.1859 ± 0.0056 mPa·s
263.02 K, 3420 kPa | 0.1899 ± 0.0058 mPa·s
263.02 K, 3430 kPa | 0.1898 ± 0.0058 mPa·s
263.02 K, 3450 kPa | 0.1898 ± 0.0058 mPa·s
263.02 K, 3520 kPa | 0.1903 ± 0.0057 mPa·s
263.02 K, 3560 kPa | 0.1901 ± 0.0057 mPa·s
263.02 K, 3590 kPa | 0.1898 ± 0.0058 mPa·s
263.02 K, 3640 kPa | 0.1906 ± 0.0057 mPa·s
263.02 K, 3670 kPa | 0.1905 ± 0.0057 mPa·s and 0.1908 ± 0.0057 mPa·s
263.02 K, 4800 kPa | 0.1943 ± 0.0059 mPa·s
263.02 K, 4840 kPa | 0.194 ± 0.0058 mPa·s
263.02 K, 4870 kPa | 0.194 ± 0.0058 mPa·s
263.02 K, 4910 kPa | 0.1942 ± 0.0059 mPa·s
263.02 K, 4950 kPa | 0.1939 ± 0.0059 mPa·s
263.02 K, 6990 kPa | 0.2018 ± 0.0059 mPa·s
263.02 K, 7090 kPa | 0.201 ± 0.0059 mPa·s
263.02 K, 7160 kPa | 0.2015 ± 0.0059 mPa·s
263.02 K, 7200 kPa | 0.2011 ± 0.0059 mPa·s
263.02 K, 7230 kPa | 0.2016 ± 0.0059 mPa·s
263.02 K, 7310 kPa | 0.2013 ± 0.0059 mPa·s and 0.2019 ± 0.0059 mPa·s
263.02 K, 7380 kPa | 0.2024 ± 0.0059 mPa·s
263.02 K, 7390 kPa | 0.2015 ± 0.0059 mPa·s
263.02 K, 7420 kPa | 0.2011 ± 0.0059 mPa·s
263.02 K, 7460 kPa | 0.2024 ± 0.0059 mPa·s and 0.2022 ± 0.0059 mPa·s
263.02 K, 7520 kPa | 0.2017 ± 0.0059 mPa·s
273.21 K, 1420 kPa | 0.1617 ± 0.0052 mPa·s
273.21 K, 1430 kPa | 0.1619 ± 0.0053 mPa·s
273.21 K, 1440 kPa | 0.1619 ± 0.0053 mPa·s
273.21 K, 1450 kPa | 0.1619 ± 0.0053 mPa·s
273.21 K, 1810 kPa | 0.1629 ± 0.0053 mPa·s
273.21 K, 1820 kPa | 0.1627 ± 0.0053 mPa·s
273.21 K, 1860 kPa | 0.1629 ± 0.0053 mPa·s
273.21 K, 1890 kPa | 0.1626 ± 0.0053 mPa·s
273.21 K, 3450 kPa | 0.1681 ± 0.0054 mPa·s and 0.1679 ± 0.0053 mPa·s and 0.1682 ± 0.0054 mPa·s
273.21 K, 3460 kPa | 0.1677 ± 0.0053 mPa·s
273.21 K, 3490 kPa | 0.1682 ± 0.0054 mPa·s and 0.1678 ± 0.0053 mPa·s
273.21 K, 3500 kPa | 0.168 ± 0.0054 mPa·s
273.21 K, 4850 kPa | 0.1724 ± 0.0055 mPa·s
273.21 K, 4860 kPa | 0.1722 ± 0.0054 mPa·s
273.21 K, 4880 kPa | 0.1724 ± 0.0054 mPa·s and 0.1719 ± 0.0055 mPa·s
273.21 K, 4910 kPa | 0.1722 ± 0.0054 mPa·s
273.21 K, 4960 kPa | 0.1724 ± 0.0055 mPa·s
273.21 K, 5010 kPa | 0.172 ± 0.0055 mPa·s
273.21 K, 5030 kPa | 0.1723 ± 0.0055 mPa·s
273.21 K, 7780 kPa | 0.1804 ± 0.0055 mPa·s
273.21 K, 7800 kPa | 0.1805 ± 0.0055 mPa·s
273.21 K, 7810 kPa | 0.1806 ± 0.0055 mPa·s
273.21 K, 7900 kPa | 0.1803 ± 0.0055 mPa·s
273.21 K, 7960 kPa | 0.1805 ± 0.0055 mPa·s
273.21 K, 9530 kPa | 0.1854 ± 0.0056 mPa·s
273.21 K, 9540 kPa | 0.1852 ± 0.0056 mPa·s
273.21 K, 9580 kPa | 0.1856 ± 0.0056 mPa·s
273.21 K, 9610 kPa | 0.1851 ± 0.0056 mPa·s
273.21 K, 9770 kPa | 0.185 ± 0.0056 mPa·s
273.21 K, 9880 kPa | 0.1853 ± 0.0056 mPa·s
283.22 K, 1240 kPa | 0.1416 ± 0.005 mPa·s
283.22 K, 1260 kPa | 0.1418 ± 0.0049 mPa·s
283.22 K, 1470 kPa | 0.1416 ± 0.0049 mPa·s
283.22 K, 1510 kPa | 0.1424 ± 0.005 mPa·s
283.22 K, 1530 kPa | 0.1424 ± 0.005 mPa·s
283.22 K, 1570 kPa | 0.1429 ± 0.005 mPa·s
283.22 K, 1900 kPa | 0.1433 ± 0.005 mPa·s
283.22 K, 1930 kPa | 0.1433 ± 0.005 mPa·s
283.22 K, 1950 kPa | 0.1432 ± 0.005 mPa·s
283.22 K, 1970 kPa | 0.144 ± 0.005 mPa·s
283.22 K, 2000 kPa | 0.1435 ± 0.005 mPa·s
283.22 K, 2050 kPa | 0.1442 ± 0.005 mPa·s
283.22 K, 3700 kPa | 0.1495 ± 0.0051 mPa·s
283.22 K, 3720 kPa | 0.1496 ± 0.0051 mPa·s
283.22 K, 3850 kPa | 0.1497 ± 0.0051 mPa·s
283.22 K, 5130 kPa | 0.1537 ± 0.0052 mPa·s
283.22 K, 5220 kPa | 0.1543 ± 0.0051 mPa·s
283.22 K, 5260 kPa | 0.1536 ± 0.0052 mPa·s and 0.154 ± 0.0052 mPa·s
283.22 K, 7400 kPa | 0.1615 ± 0.0053 mPa·s
283.22 K, 7500 kPa | 0.161 ± 0.0052 mPa·s
283.22 K, 7540 kPa | 0.1607 ± 0.0052 mPa·s
283.22 K, 9720 kPa | 0.1679 ± 0.0053 mPa·s
283.22 K, 9780 kPa | 0.1678 ± 0.0053 mPa·s
283.22 K, 9940 kPa | 0.168 ± 0.0053 mPa·s
283.22 K, 10050 kPa | 0.1678 ± 0.0053 mPa·s
293.17 K, 1370 kPa | 0.1253 ± 0.0047 mPa·s
293.17 K, 1390 kPa | 0.1255 ± 0.0047 mPa·s
293.17 K, 1400 kPa | 0.1252 ± 0.0047 mPa·s
293.17 K, 1420 kPa | 0.1256 ± 0.0047 mPa·s
293.17 K, 1430 kPa | 0.1258 ± 0.0047 mPa·s and 0.1256 ± 0.0047 mPa·s
293.17 K, 1440 kPa | 0.1258 ± 0.0047 mPa·s
293.17 K, 1850 kPa | 0.1268 ± 0.0047 mPa·s
293.17 K, 1860 kPa | 0.1266 ± 0.0047 mPa·s
293.17 K, 1890 kPa | 0.1271 ± 0.0047 mPa·s
293.17 K, 1920 kPa | 0.1267 ± 0.0047 mPa·s
293.17 K, 1940 kPa | 0.127 ± 0.0047 mPa·s
293.17 K, 3820 kPa | 0.1333 ± 0.0048 mPa·s
293.17 K, 3830 kPa | 0.1336 ± 0.0048 mPa·s
293.17 K, 3850 kPa | 0.1337 ± 0.0048 mPa·s
293.17 K, 3860 kPa | 0.1335 ± 0.0048 mPa·s
293.17 K, 3870 kPa | 0.1333 ± 0.0048 mPa·s
293.17 K, 3890 kPa | 0.1335 ± 0.0048 mPa·s and 0.1336 ± 0.0048 mPa·s
293.17 K, 4900 kPa | 0.1378 ± 0.0049 mPa·s
293.17 K, 4920 kPa | 0.1377 ± 0.0049 mPa·s
293.17 K, 4960 kPa | 0.138 ± 0.0049 mPa·s
293.17 K, 4970 kPa | 0.138 ± 0.0049 mPa·s
293.17 K, 5010 kPa | 0.1381 ± 0.0049 mPa·s
293.17 K, 7450 kPa | 0.1448 ± 0.005 mPa·s
293.17 K, 7490 kPa | 0.1446 ± 0.005 mPa·s
293.17 K, 7520 kPa | 0.145 ± 0.005 mPa·s
293.17 K, 7550 kPa | 0.1449 ± 0.005 mPa·s
293.17 K, 7560 kPa | 0.1449 ± 0.005 mPa·s
293.17 K, 7590 kPa | 0.1451 ± 0.005 mPa·s
293.17 K, 7620 kPa | 0.1453 ± 0.005 mPa·s
293.17 K, 9740 kPa | 0.1507 ± 0.0051 mPa·s
293.17 K, 9770 kPa | 0.1506 ± 0.0051 mPa·s
293.17 K, 9820 kPa | 0.1507 ± 0.0051 mPa·s
293.17 K, 9880 kPa | 0.151 ± 0.0051 mPa·s
293.17 K, 9970 kPa | 0.1511 ± 0.0051 mPa·s
293.17 K, 10070 kPa | 0.1517 ± 0.0051 mPa·s
